Experimental data taken from patent publication US10130633B2, “Compounds” (BAYER PHARMA AKTIENGESELLSCHAFT, priority 2013, dated 2018).

Key:
[1] = test system: HCT116 FOP control reporter cell line; assay: HCT116 FOPFlash control reporter assay (FOP control vector, non-functional TCF elements); type: cell-based; conditions: HCT116 FOP control reporter cells, 36 hours incubation, luciferase expression
Description: In a parallel approach, HCT116 cells were cotransfected with the FOP control vector and pcDNA3. The FOP vector is identical to the TOP construct, but it contains instead of functional TCF elements a randomized, non-functional sequence. For this transfection a stable transfected cell line was generated as well.

[2] = test system: constitutive active colorectal cancer cell (CRC) Wnt pathway; assay: HCT116 TOPFlash cellular reporter assay (Super TopFlash luciferase), constitutive active Wnt pathway; type: cell-based; conditions: HCT116 TOP reporter cells, 36 hours incubation, luciferase expression
Method: In order to discover and characterize small molecules which inhibit the constitutive active colorectal cancer cell (CRC) Wnt pathway, a cellular reporter assay was employed. […] Stable transfectants were generated by cotransfection with pcDNA3 and selection of stable transfected cells with 1 mg/ml G418.

Row | SMILES | IC50 ([1]; Homo sapiens, HCT-116, 36 h) [nM] | IC50 ([2]; Homo sapiens, HCT-116, 36 h) [nM] | IC50 [1] [nM] | IC50 [2] [nM]
1 | COc1ccc(NC(=O)c2ccc(-c3ccccc3)nc2)cc1NC(=O)CN1CCOCC1 [Example 34, N-{4-methoxy-3-[(morpholin-4-ylacetyl)amino]phenyl}-6-phenylnicotinamide] | ≥ 50000 | 1220 |  | 
2 | COc1ccc(NC(=O)c2ccc(-c3ccc(F)cc3)s2)cc1NC(=O)CN1CCOCC1 [Example 36, 5-(4-fluorophenyl)-N-{4-methoxy-3-[(morpholin-4-ylacetyl)amino]phenyl}thiophene-2-carboxamide] | 22000 | 1200 |  | 
3 | CN1CCN(C2(C(=O)Nc3cc(C(=O)Nc4nnc(-c5ccccc5)s4)ccc3OC(F)F)CC2)CC1 [Example 39, 4-(difluoromethoxy)-3-({[1-(4-methylpiperazin-1-yl)cyclopropyl]carbonyl}amino)-N-(5-phenyl-1,3,4-thiadiazol-2-yl)benzamide] | 32000 | 33.8 |  | 
4 | CN1CCN(C2(C(=O)Nc3cc(C(=O)Nc4nnc(-c5ccccc5)s4)ccc3OC(F)(F)F)CC2)CC1 [Example 52, 3-({[1-(4-methylpiperazin-1-yl)cyclopropyl]carbonyl}amino)-N-(5-phenyl-1,3,4-thiadiazol-2-yl)-4-(trifluoromethoxy)benzamide] | ≥ 50000 | 26.5 |  | 
5 | O=C(CN1CCOCC1)Nc1cc(C(=O)Nc2nnc(-c3ccccc3)s2)ccc1OC(F)(F)F [Example 55, 3-[(morpholin-4-ylacetyl)amino]-N-(5-phenyl-1,3,4-thiadiazol-2-yl)-4-(trifluoromethoxy)benzamide] | ≥ 50000 | 150 |  | 
6 | CN1CCN(CC(=O)Nc2cc(C(=O)Nc3nnc(-c4ccccc4)s3)ccc2C(F)(F)F)CC1 [Example 59, 3-{[(4-methylpiperazin-1-yl)acetyl]amino}-N-(5-phenyl-1,3,4-thiadiazol-2-yl)-4-(trifluoromethyl)benzamide] | ≥ 50000 | 385 |  | 
7 | CC(C(=O)Nc1cc(C(=O)Nc2ccc(-c3cccc(F)c3)nc2)ccc1OC(F)(F)F)N1CCOCC1 (stereo not shown) [Example 69, N-[6-(3-fluorophenyl)pyridin-3-yl]-3-{[2-(morpholin-4-yl)propanoyl]amino}-4-(trifluoromethoxy)benzamide] |  |  | ≥ 50000 | 14.8
8 | O=C(CN1CCOCC1)Nc1cc(C(=O)Nc2ccc(-c3cc(F)cc(F)c3)nc2)ccc1OC(F)(F)F [Example 72, N-[6-(3,5-difluorophenyl)pyridin-3-yl]-3-[(morpholin-4-ylacetyl)amino]-4-(trifluoromethoxy)benzamide] | 8000 | 106 |  | 
9 | O=C(CN1CC2CCC(C1)O2)Nc1cc(C(=O)Nc2ccc(-c3cc(F)cc(F)c3)nc2)ccc1OC(F)(F)F [Example 73, N-[6-(3,5-difluorophenyl)pyridin-3-yl]-3-[(8-oxa-3-azabicyclo[3.2.1]oct-3-ylacetyl)amino]-4-(trifluoromethoxy)benzamide] | ≥ 50000 | 98.5 |  | 
10 | O=C(CN1CCOCC1)Nc1cc(C(=O)Nc2ccc(-c3ccccc3F)nc2)ccc1C(F)(F)F [Example 74, N-[6-(2-fluorophenyl)pyridin-3-yl]-3-[(morpholin-4-ylacetyl)amino]-4-(trifluoromethyl)benzamide] | 42200 | 85.8 |  | 
11 | O=C(Nc1ccc(-c2ccccc2F)nc1)c1ccc(F)c(NC(=O)C2(N3CCOCC3)CC2)c1 [Example 77, 4-fluoro-N-[6-(2-fluorophenyl)pyridin-3-yl]-3-({[1-(morpholin-4-yl)cyclopropyl]carbonyl}amino)benzamide] | 14000 | 370 |  | 
12 | O=C(Nc1nnc(-c2ccccc2)s1)c1ccc(F)c(NC(=O)C2(N3CCOCC3)CC2)c1 [Example 78, 4-fluoro-3-({[1-(morpholin-4-yl)cyclopropyl]carbonyl}amino)-N-(5-phenyl-1,3,4-thiadiazol-2-yl)benzamide] | ≥ 50000 | 508 |  | 
13 | COc1ccc(C(=O)Nc2ccc(-c3ccccc3F)nc2)cc1NC(=O)C1(N2CCOCC2)CCC1 [Example 82, N-[6-(2-fluorophenyl)pyridin-3-yl]-4-methoxy-3-({[1-(morpholin-4-yl)cyclobutyl]carbonyl}amino)benzamide] | ≥ 50000 | 2550 |  | 
14 | COCc1ccc(C(=O)Nc2nnc(-c3ccccc3)s2)cc1NC(=O)CN1CCOCC1 [Example 83, 4-(methoxymethyl)-3-[(morpholin-4-ylacetyl)amino]-N-(5-phenyl-1,3,4-thiadiazol-2-yl)benzamide] | ≥ 50000 | 515 |  | 
15 | COCc1ccc(C(=O)Nc2nnc(-c3ccccc3)s2)cc1NC(=O)CN1CCN(C2CC2)CC1 [Example 84, 3-{[(4-cyclopropylpiperazin-1-yl)acetyl]amino}-4-(methoxymethyl)-N-(5-phenyl-1,3,4-thiadiazol-2-yl)benzamide] | ≥ 50000 | 453 |  | 
16 | COCCN(C)CC(=O)Nc1cc(C(=O)Nc2nnc(-c3ccccc3)s2)ccc1OC(F)(F)F [Example 85, 3-{[N-(2-methoxyethyl)-N-methylglycyl]amino}-N-(5-phenyl-1,3,4-thiadiazol-2-yl)-4-(trifluoromethoxy)benzamide] | ≥ 50000 | 150 |  | 
17 | O=C(CN1CC2CCC(C1)O2)Nc1cc(C(=O)Nc2nnc(-c3ccccc3)s2)ccc1OC(F)F [Example 86, 4-(difluoromethoxy)-3-[(8-oxa-3-azabicyclo[3.2.1]oct-3-ylacetyl)amino]-N-(5-phenyl-1,3,4-thiadiazol-2-yl)benzamide] | ≥ 50000 | 890 |  | 
18 | CC(C(=O)Nc1cc(C(=O)Nc2nnc(-c3ccccc3)s2)ccc1CS(C)(=O)=O)N1CCOCC1 (stereo not shown) [Example 87, 4-[(methylsulfonyl)methyl]-3-{[2-(morpholin-4-yl)propanoyl]amino}-N-(5-phenyl-1,3,4-thiadiazol-2-yl)benzamide] | 48000 | 858 |  | 
19 | CC(C(=O)Nc1cc(C(=O)Nc2nnc(-c3ccccc3)s2)ccc1CS(C)(=O)=O)N1CCN(C)CC1 (stereo not shown) [Example 88, 3-{[2-(4-methylpiperazin-1-yl)propanoyl]amino}-4-[(methylsulfonyl)methyl]-N-(5-phenyl-1,3,4-thiadiazol-2-yl)benzamide] |  |  | ≥ 50000 | 417
20 | O=C(Nc1nnc(-c2ccccc2F)s1)c1ccc(OC(F)(F)F)c(NC(=O)C2(N3CCOCC3)CC2)c1 [Example 89, N-[5-(2-fluorophenyl)-1,3,4-thiadiazol-2-yl]-3-({[1-(morpholin-4-yl)cyclopropyl]carbonyl}amino)-4-(trifluoromethoxy)benzamide] | 44000 | 216 |  | 
21 | O=C(Nc1nnc(-c2ccc(F)cc2)s1)c1ccc(OC(F)(F)F)c(NC(=O)C2(N3CCOCC3)CC2)c1 [Example 90, N-[5-(4-fluorophenyl)-1,3,4-thiadiazol-2-yl]-3-({[1-(morpholin-4-yl)cyclopropyl]carbonyl}amino)-4-(trifluoromethoxy)benzamide] | ≥ 50000 | 173 |  | 
22 | COc1ccc(C(=O)Nc2nnc(-c3ccccc3)s2)cc1NC(=O)CN1CCN(C)CC1 [Example 91, 4-methoxy-3-{[(4-methylpiperazin-1-yl)acetyl]amino}-N-(5-phenyl-1,3,4-thiadiazol-2-yl)benzamide] | 44000 | 650 |  | 
23 | O=C(Nc1nnc(-c2ccccc2)s1)c1ccc(OCc2ccccc2)c(NC(=O)C2(N3CCOCC3)CC2)c1 [Example 92, 4-(benzyloxy)-3-({[1-(morpholin-4-yl)cyclopropyl]carbonyl}amino)-N-(5-phenyl-1,3,4-thiadiazol-2-yl)benzamide] | ≥ 50000 | 360 |  | 
24 | O=C(Nc1nnc(-c2ccccc2)s1)c1ccc(O)c(NC(=O)C2(N3CCOCC3)CC2)c1 [Example 93, 4-hydroxy-3-({[1-(morpholin-4-yl)cyclopropyl]carbonyl}amino)-N-(5-phenyl-1,3,4-thiadiazol-2-yl)benzamide] | ≥ 50000 | 240 |  | 
25 | CN1CCN(CC(=O)Nc2cc(C(=O)Nc3nnc(-c4ccccc4)s3)ccc2Br)CC1 [Example 94, 4-bromo-3-{[(4-methylpiperazin-1-yl)acetyl]amino}-N-(5-phenyl-1,3,4-thiadiazol-2-yl)benzamide] | ≥ 50000 | 433 |  | 
26 | Cc1cccc(-c2nnc(NC(=O)c3ccc(OC(F)(F)F)c(NC(=O)CN4CCOCC4)c3)s2)c1 [Example 96, N-[5-(3-methylphenyl)-1,3,4-thiadiazol-2-yl]-3-[(morpholin-4-ylacetyl)amino]-4-(trifluoromethoxy)benzamide] | ≥ 50000 | 855 |  | 
27 | O=C(CN1CCOCC1)Nc1cc(C(=O)Nc2nnc(-c3ccc([N+](=O)[O-])cc3)s2)ccc1OC(F)(F)F [Example 97, 3-[(morpholin-4-ylacetyl)amino]-N-[5-(4-nitrophenyl)-1,3,4-thiadiazol-2-yl]-4-(trifluoromethoxy)benzamide] | ≥ 50000 | 1930 |  | 
28 | Cc1ccccc1-c1nnc(NC(=O)c2ccc(OC(F)(F)F)c(NC(=O)CN3CCOCC3)c2)s1 [Example 98, N-[5-(2-methylphenyl)-1,3,4-thiadiazol-2-yl]-3-[(morpholin-4-ylacetyl)amino]-4-(trifluoromethoxy)benzamide] | 26400 | 87 |  | 
29 | O=C(CN1CCOCC1)Nc1cc(C(=O)Nc2nnc(-c3ccc(F)cc3)s2)ccc1OC(F)(F)F [Example 99, N-[5-(4-fluorophenyl)-1,3,4-thiadiazol-2-yl]-3-[(morpholin-4-ylacetyl)amino]-4-(trifluoromethoxy)benzamide] | 9300 | 935 |  | 
